The source made the active and inactive calls.
Columns and labels:
Beta-galactosidase = Beta-galactosidase (Escherichia coli, UniProt Q8VNN2); test: PubChem AID 485352; assay type: functional
[1] = HIV-1 Env-mediated cell fusion inhibitors, dose response, CCR5-tropic Env (AID 2279); assay type: functional
[2] = target: Type-1 angiotensin II receptor (Homo sapiens, UniProt P30556); test: AT1 receptor antagonists, dose response, selectivity assay for APJ receptor antagonist project, cell-based, uHTS hits (AID 463214); assay type: functional;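 further: antagonist potency against angiotensin II stimulated AT1 response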
[3] = cytotoxicity in HEK-293T cells, dose response, cytotoxicity control for TCR NF-kB inhibitor project, luminescence, T-cell screen hits (AID 489026); assay type: functional, cell-based;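 further: cells exposed to compound about 14 hours before the viability readout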
[4] = target: Luciferin 4-monooxygenase (Photuris pensylvanica, UniProt Q27757); test: firefly luciferase enzyme inhibitors, dose response, counter-screen for HSF-1 reporter inhibitor project, biochemical, Cell Titer Glo, luminescence, cherry-picks (AID 588847)
[5] = HepG2 cell cytotoxicity, dose response, cytotoxicity control, plate reader, cherry-pick, antagonist series (AID 743416); assay type: functional, cell-based
[6] = non-specific cell cytotoxicity, dose response, cytotoxicity control for PAX8 inhibitor project, plate reader, dry powder samples (AID 743021); assay type: functional, cell-based
[7] = LGR2 antagonists, dose response, cell-based, HEK293, CRE-luciferase reporter, cherry pick, set 2 (AID 743343); assay type: functional;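 further: transfected cells were stimulated with diluted bursicon conditioned medium after compound addition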
Exodeoxyribonuclease V = Exodeoxyribonuclease V (Escherichia coli (strain K12), UniProt P04993+P07648+P08394); test: E. coli RecBCD inhibitors, dose response, counter-screen for AddAB inhibitor project, absorbance, V66 E. coli, mutant T4 phage (AID 492957); assay type: functional, cell-based, Escherichia coli str. K-12 substr. MG1655
Sequence of Exodeoxyribonuclease V (P04993 whole entry): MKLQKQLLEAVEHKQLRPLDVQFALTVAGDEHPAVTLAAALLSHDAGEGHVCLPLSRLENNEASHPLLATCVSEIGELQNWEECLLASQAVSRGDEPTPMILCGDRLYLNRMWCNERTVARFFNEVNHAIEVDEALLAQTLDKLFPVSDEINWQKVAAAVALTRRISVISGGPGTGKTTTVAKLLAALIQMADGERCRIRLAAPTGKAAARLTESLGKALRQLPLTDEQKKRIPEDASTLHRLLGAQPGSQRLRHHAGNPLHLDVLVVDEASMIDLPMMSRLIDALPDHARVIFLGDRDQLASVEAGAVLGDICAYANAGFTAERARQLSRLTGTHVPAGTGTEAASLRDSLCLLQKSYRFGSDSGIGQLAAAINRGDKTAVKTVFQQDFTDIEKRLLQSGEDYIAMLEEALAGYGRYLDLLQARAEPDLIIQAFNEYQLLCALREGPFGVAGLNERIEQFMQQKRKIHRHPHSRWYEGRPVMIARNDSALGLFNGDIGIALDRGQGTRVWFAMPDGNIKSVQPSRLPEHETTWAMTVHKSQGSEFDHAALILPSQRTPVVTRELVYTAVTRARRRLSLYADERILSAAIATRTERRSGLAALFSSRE
Sequence of Exodeoxyribonuclease V (P07648 whole entry): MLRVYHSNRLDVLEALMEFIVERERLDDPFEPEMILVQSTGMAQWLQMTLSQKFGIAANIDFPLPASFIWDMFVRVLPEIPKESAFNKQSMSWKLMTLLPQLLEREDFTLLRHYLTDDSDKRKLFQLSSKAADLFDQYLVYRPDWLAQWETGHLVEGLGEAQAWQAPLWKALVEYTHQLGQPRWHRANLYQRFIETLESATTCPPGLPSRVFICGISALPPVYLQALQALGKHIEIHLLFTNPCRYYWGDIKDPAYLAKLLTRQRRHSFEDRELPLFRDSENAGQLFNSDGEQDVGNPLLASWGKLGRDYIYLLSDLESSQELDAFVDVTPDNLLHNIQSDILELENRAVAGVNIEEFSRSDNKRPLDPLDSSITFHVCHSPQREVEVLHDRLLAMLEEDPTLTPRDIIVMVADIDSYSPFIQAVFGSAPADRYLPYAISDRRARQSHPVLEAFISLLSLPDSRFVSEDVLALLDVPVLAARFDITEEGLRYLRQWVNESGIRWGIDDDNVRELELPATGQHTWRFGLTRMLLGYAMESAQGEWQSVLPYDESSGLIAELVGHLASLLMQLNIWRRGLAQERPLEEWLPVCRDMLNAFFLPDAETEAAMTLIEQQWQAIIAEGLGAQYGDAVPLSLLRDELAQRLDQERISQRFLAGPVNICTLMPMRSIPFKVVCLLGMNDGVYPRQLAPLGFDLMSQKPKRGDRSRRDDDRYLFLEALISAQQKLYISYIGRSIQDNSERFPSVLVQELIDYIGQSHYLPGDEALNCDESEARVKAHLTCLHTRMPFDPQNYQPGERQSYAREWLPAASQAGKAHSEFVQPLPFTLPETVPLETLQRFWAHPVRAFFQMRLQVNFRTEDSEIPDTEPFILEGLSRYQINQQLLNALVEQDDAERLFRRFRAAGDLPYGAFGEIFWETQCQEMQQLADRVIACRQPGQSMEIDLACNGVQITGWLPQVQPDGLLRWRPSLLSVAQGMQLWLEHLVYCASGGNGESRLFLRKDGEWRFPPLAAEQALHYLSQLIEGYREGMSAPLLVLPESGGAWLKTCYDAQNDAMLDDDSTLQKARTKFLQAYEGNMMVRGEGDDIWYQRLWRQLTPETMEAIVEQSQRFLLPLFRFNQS
Sequence of Exodeoxyribonuclease V (P08394 whole entry): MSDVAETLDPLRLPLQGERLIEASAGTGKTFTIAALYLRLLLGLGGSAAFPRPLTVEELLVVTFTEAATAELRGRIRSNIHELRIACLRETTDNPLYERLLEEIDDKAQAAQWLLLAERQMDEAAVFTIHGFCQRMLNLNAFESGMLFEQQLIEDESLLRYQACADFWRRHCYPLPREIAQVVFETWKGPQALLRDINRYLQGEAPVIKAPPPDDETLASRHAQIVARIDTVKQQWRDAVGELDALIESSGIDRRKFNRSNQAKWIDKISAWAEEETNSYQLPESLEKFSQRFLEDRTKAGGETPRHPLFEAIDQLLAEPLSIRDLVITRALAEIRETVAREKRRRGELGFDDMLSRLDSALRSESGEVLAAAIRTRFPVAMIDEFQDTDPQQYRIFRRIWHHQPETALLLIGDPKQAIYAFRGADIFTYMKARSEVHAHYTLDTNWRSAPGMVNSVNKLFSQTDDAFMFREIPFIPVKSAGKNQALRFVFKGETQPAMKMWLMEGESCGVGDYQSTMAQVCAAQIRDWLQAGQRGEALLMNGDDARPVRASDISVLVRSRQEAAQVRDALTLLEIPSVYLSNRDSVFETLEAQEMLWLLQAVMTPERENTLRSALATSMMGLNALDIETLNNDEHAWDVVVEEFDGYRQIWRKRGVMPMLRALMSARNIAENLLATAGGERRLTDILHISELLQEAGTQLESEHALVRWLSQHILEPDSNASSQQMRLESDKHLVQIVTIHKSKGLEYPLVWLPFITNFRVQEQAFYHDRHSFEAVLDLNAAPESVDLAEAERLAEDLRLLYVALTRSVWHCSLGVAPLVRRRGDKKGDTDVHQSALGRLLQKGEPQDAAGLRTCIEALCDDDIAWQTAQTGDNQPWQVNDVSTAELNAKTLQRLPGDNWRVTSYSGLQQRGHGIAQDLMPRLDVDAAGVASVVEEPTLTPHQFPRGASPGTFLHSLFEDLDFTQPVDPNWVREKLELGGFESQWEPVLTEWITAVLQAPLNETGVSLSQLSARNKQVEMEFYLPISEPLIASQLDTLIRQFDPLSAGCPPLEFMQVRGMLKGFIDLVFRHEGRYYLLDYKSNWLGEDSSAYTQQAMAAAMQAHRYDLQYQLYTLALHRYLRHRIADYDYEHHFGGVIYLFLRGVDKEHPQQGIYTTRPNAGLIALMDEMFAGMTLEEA

[8] = MC4R antagonists, dose response, counter-screen for LGR2 antagonist project, cell-based, plate reader, cherry pick (AID 743444); assay type: functional;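 further: transfected HEK 293 cells stimulated with alpha-MSH peptide; potency of inhibitors of the alpha-MSH evoked signal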
Vero = test: cells; assay type: functional; conditions: Chlorocebus sabaeus
Paired box protein Pax-8 = Paired box protein Pax-8 (Homo sapiens, UniProt Q06710); test: inhibitors of PAX8-driven TPO luciferase reporter, dose response, RMG-I cells, cherry-pick (AID 687027); assay type: functional, cell-based;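 further: luciferase reporter driven by Pax8 target thyroperoxidase promoter measured by SteadyGlo luminescence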
Sequence of Paired box protein Pax-8 (Q06710 whole entry): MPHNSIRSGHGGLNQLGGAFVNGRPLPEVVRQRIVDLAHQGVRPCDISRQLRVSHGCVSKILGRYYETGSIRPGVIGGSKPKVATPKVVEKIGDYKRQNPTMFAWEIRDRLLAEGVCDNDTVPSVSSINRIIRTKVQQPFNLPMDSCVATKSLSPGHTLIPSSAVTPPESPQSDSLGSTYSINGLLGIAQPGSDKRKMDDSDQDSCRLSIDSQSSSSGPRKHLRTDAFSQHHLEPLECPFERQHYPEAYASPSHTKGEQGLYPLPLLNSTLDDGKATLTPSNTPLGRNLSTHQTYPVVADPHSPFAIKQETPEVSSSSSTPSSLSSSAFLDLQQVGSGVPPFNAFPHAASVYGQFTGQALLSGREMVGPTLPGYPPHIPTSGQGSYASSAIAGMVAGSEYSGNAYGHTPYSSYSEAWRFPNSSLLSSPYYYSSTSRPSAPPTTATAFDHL

[9] = HEK293 cell cytotoxicity, dose response, cytotoxicity control, plate reader, cherry-picked samples (AID 743446); assay type: functional, cell-based
[10] = Counterscreen for AddAB inhibitors: absorbance-based bacterial cell-based high throughput dose response assay for inhibitors of bacterial viability. [Related pubchem assays (depositor defined):AID435030, AID449728, AID449731, AID488942, AID488955, AID488956]; assay type: functional
[11] = A549 cell cytotoxicity, dose response, cytotoxicity control, plate reader, cherry-pick, antagonist series (AID 743412); assay type: functional, cell-based
[12] = target: T1, Heat shock factor protein 1 (Mus musculus, UniProt P38532); test: inhibition of MG132-induced HSE-luciferase signal, confirmation, cell-based, NIH3T3, luminescence, dose retest (AID 2382); assay type: functional;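 further: NIH3T3 fibroblasts with HSF1-driven luciferase reporter stressed by proteasome inhibitor MG132; luminescence from HSF1-driven luciferase expression after 8 hours of MG132 stress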
T1 sequence (P38532 whole entry): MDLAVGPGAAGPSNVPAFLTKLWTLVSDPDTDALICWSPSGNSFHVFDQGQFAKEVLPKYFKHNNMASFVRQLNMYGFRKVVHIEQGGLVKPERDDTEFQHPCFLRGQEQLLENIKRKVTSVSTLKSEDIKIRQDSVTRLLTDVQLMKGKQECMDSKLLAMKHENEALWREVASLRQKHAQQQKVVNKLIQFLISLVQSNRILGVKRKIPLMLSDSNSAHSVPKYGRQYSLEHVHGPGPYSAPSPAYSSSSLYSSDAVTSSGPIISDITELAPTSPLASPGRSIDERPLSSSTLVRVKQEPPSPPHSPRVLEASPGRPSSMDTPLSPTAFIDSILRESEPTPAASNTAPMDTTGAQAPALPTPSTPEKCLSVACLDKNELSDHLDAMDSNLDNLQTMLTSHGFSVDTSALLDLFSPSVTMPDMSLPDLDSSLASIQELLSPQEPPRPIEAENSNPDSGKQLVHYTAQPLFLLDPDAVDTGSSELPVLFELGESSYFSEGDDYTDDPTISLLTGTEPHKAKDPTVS

[13] = cytotoxicity toward NIH3T3 fibroblasts, dose response, counter-screen, cell-based, ATP luminescence, mouse fibroblasts (AID 2010); assay type: functional;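 further: cells exposed to compound for about 90 hours before reading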
[14] = target: T2, Calpain-2 catalytic subunit (Sus scrofa, UniProt P43367); test: pig calpain II inhibitor potency, dose response, biochemical, fluorogenic peptide substrate (AID 1420); assay type: functional
T2 sequence (P43367 whole entry): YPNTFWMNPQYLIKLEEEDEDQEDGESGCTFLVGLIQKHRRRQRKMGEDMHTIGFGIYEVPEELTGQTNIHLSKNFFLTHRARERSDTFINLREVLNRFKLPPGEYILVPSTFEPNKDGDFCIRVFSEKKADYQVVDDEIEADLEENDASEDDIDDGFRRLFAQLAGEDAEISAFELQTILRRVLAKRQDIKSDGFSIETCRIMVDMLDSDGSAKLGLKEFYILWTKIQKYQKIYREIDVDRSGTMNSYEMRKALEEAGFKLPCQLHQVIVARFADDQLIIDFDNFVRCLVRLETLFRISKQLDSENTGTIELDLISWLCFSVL

A-375 = test: A375 melanoma cell viability reduction, dose response, counter-screen for MITF modulator project, cherry-pick samples, set 2 (AID 540335); assay type: functional, cell-based; conditions: Homo sapiens
[15] = Luminescence-based dose response cell-based high throughput screening assay for cytotoxic compounds using the IEC-6 intestinal epithelial cell line. [Related pubchem assays: 1858 (Summary AID.), 1825 (Counterscreen.), 1907 (Confirmation screen.)]; assay type: functional
[16] = target: T3, Histone-lysine N-methyltransferase NSD2 (Homo sapiens, UniProt O96028); assay type: biochemical
T3 sequence (O96028 whole entry): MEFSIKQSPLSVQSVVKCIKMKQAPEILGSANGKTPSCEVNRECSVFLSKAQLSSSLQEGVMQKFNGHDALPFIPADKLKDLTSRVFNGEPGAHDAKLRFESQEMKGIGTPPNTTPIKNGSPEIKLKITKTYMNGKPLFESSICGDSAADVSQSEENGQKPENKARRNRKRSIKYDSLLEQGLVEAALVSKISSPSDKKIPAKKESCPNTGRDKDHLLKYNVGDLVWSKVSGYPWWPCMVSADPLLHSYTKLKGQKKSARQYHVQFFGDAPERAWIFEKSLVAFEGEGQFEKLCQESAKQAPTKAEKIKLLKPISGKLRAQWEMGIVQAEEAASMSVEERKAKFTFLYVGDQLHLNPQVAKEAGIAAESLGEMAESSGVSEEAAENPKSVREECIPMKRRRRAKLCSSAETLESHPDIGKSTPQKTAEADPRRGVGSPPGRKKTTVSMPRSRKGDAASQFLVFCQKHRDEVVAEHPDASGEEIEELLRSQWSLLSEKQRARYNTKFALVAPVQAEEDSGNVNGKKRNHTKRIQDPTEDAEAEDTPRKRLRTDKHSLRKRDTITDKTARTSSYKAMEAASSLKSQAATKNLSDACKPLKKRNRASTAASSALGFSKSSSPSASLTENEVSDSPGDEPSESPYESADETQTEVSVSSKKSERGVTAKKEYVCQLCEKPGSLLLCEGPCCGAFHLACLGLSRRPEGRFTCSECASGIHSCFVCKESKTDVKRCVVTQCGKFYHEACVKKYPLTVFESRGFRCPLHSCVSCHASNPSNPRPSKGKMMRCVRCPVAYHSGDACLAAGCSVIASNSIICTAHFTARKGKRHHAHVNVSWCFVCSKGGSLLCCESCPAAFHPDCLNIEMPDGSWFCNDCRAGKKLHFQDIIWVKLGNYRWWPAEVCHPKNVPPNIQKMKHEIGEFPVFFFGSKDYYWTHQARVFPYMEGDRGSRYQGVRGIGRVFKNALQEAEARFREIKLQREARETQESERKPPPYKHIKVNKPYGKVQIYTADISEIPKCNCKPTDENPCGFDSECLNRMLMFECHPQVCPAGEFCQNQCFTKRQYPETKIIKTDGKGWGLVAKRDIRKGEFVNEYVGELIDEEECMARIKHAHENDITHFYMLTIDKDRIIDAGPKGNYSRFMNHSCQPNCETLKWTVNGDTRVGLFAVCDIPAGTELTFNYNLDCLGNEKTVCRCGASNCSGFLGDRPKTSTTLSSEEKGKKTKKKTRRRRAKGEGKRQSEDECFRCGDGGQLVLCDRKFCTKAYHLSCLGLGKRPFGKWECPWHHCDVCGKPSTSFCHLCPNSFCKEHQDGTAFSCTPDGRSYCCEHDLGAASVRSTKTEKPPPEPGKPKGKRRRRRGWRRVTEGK

[17] = inhibitors of intracellular T. cruzi replication, confirmation, NIH3T3 host cells, beta-gal luminescence (AID 2044); assay type: functional, cell-based;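 further: intracellular parasites grown in NIH/3T3 mouse fibroblasts as host cells; luminescent beta-galactosidase reporter signal from transgenic T. cruzi replicating inside host cells; inhibitors lower the luminescence signal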
[18] = target: Microphthalmia-associated transcription factor (Homo sapiens, UniProt O75030); test: TRPM1 promoter luciferase signal decrease, dose response, MITF inhibitor project, cell-based, SK-MEL-5, cherry-picked, set 3 (AID 493073); assay type: functional
Sequence of Microphthalmia-associated transcription factor (O75030 whole entry): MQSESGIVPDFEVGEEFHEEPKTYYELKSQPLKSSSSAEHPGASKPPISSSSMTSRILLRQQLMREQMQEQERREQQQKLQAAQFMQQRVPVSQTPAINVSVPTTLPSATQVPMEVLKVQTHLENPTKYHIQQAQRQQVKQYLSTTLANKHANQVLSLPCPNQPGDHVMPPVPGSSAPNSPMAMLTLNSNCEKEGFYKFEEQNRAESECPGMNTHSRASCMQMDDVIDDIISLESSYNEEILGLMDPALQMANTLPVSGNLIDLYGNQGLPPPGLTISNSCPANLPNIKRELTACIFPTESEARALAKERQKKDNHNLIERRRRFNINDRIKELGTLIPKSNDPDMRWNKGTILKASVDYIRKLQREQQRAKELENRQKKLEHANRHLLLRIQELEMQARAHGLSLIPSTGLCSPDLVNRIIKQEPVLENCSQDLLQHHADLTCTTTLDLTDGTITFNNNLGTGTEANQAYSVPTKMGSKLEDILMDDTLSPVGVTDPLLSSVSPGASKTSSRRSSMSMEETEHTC

INS1 = test: beta cell apoptosis inhibitors, cytokine rescue, dose response, luminescence, retest (AID 449756); assay type: functional, cell-based; conditions: Rattus norvegicus;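 further: cell death triggered by IL-1 beta plus TNF-alpha plus IFN-gamma mixture; protective hits raise ATP signal compared with cytokine alone wells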
[19] = target: T4, Apoptotic protease-activating factor 1 (Homo sapiens, UniProt O14727); assay type: functional
T4 sequence (O14727 whole entry): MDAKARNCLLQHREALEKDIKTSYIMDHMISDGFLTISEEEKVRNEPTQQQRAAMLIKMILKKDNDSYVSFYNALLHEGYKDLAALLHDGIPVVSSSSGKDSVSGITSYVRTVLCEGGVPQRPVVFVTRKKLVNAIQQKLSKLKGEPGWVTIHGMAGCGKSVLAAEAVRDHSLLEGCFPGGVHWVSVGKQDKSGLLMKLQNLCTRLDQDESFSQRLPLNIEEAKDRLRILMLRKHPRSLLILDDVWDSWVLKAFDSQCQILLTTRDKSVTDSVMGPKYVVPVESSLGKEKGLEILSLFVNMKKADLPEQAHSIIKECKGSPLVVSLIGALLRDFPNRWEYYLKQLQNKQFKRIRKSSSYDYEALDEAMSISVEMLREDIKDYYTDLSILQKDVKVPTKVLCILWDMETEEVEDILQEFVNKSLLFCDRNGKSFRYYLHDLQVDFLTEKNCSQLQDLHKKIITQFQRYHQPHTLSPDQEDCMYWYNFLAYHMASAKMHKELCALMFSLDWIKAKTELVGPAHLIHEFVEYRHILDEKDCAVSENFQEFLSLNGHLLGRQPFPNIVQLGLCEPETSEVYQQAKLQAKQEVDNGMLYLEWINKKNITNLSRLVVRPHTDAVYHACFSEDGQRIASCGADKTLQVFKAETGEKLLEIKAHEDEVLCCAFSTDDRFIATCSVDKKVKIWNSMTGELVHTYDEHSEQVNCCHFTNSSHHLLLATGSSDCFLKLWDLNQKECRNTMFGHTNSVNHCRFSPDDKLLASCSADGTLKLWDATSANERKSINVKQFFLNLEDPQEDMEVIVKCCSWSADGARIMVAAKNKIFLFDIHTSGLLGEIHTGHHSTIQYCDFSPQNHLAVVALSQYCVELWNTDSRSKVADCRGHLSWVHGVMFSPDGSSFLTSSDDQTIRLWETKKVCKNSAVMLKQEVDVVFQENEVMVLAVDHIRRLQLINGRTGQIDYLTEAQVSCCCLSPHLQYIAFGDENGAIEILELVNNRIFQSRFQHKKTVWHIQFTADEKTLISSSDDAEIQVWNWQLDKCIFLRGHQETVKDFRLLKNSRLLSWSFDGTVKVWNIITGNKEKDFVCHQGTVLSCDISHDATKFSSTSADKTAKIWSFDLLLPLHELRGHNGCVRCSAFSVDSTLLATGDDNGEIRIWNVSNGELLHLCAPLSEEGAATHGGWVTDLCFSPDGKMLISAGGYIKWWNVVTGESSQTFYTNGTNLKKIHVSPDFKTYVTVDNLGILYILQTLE

Sequence of Beta-galactosidase (Q8VNN2 whole entry, the tested form may be a part): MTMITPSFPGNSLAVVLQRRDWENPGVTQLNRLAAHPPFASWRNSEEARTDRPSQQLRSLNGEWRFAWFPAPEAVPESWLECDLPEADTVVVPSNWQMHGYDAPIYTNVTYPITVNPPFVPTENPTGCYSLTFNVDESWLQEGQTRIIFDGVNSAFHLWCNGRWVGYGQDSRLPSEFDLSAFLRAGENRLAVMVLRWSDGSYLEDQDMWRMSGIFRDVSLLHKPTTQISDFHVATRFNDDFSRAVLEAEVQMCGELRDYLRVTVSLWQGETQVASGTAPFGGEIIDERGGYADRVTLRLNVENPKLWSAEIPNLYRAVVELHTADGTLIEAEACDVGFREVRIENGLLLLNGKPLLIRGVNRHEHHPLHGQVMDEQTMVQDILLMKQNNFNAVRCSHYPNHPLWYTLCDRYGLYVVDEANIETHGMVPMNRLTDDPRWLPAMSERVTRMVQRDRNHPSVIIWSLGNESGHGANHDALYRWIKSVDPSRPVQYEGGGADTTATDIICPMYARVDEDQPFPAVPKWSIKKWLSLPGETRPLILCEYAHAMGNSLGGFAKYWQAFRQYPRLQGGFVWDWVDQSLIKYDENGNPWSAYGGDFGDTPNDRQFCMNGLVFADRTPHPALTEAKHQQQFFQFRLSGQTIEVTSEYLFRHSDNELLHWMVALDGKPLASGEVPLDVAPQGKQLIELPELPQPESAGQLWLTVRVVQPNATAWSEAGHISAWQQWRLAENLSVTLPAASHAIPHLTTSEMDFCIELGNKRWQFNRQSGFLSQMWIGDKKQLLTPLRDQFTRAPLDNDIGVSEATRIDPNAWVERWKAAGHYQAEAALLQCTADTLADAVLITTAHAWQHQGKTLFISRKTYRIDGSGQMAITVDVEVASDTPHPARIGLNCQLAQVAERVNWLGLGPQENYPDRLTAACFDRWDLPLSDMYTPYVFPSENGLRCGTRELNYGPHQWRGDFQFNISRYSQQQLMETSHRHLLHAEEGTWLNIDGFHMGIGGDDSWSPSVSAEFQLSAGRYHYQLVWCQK

**Q.** With `O=C(O)c1ccccc1N=Nc1c(O)[nH]c2ccc([N+](=O)[O-])cc12` as the compound, how does the EC50 (Beta-galactosidase) read?
**A.** > 40 µM (inactive)

**Q.** What about the IC50 [1] of the same compound?
**A.** 10.1 µM (active)

**Q.** And the IC50 [2]?
**A.** > 40 µM (not active)

**Q.** Which IC50 [3] does the source give for `C(=N\Nc1nc2ccccc2s1)/c1ccccn1` here?
**A.** > 80 µM (inactive)

**Q.** And the AC50 [4]?
**A.** 0.836 µM (active)

**Q.** What about the AC50 [5] of the same compound?
**A.** 2.06 µM (active)

**Q.** What about the AC50 [6] of the same compound?
**A.** 9.34 µM (active)

**Q.** And the AC50 [7]?
**A.** 0.148 µM (active)

**Q.** And the IC50 (Exodeoxyribonuclease V)?
**A.** > 119 µM (inactive)

**Q.** What about the AC50 [8] of the same compound?
**A.** 0.229 µM (active)

**Q.** And the CC50 (Vero)?
**A.** 2.61 µM (active)

**Q.** And the AC50 (Paired box protein Pax-8)?
**A.** 3.32 µM (active)

**Q.** What about the AC50 [9] of the same compound?
**A.** 3.72 µM (active)

**Q.** And the IC50 [10]?
**A.** > 119 µM (inactive)

**Q.** What about the AC50 [11] of the same compound?
**A.** 2.02 µM (active)

**Q.** And the EC50 [12]?
**A.** < 0.16 µM (active)

**Q.** Which results are given for `CCN(CC)CCCNC1=C(Cl)C(=O)c2ccccc2C1=O`?
**A.** EC50 [13]: 2.26 µM (active); IC50 [14]: 9.5 µM (not active); AC50 (A-375): 14.8 µM (active); IC50 [15]: 1.8 µM (active); AC50 [16]: 4.69 µM (active); EC50 [17]: 0.987 µM (active); AC50 [18]: 1.78 µM (active); AC50 (INS1): 2.46 µM (active); IC50 [19]: 11.7 µM (active)
